These are literature values, as cited in patent US20200254002A1, “COMBINATION THERAPIES FOR TREATING MUSCULAR DYSTROPHY” (SAREPTA THERAPEUTICS, INC., priority 2017, published 2020).

For data set [1] the following is noted: phase I clinical program in adults.
Data set [2] has as its system ryanodine receptor. The conditions noted are these: patient cells and a mouse model of DMD.
Data set [3] deals with NF-κB p65.
The test system of data set [4] is Mdx mice.
In data set [5] the test system is cNF-κB. The settings on record: in vitro.
In data set [6] the test system is exon 53 of dystrophin pre-mRNA. The conditions noted are these: for Exon skipping in DMD patients: all 25 patients, at least 48 weekly doses.
Data set [7] has as its system dystrophin. The conditions noted are these: DMD patients.
Data set [8] concerns dystrophin protein.
Data set [9] concerns immune response. The conditions noted are these: rat, in vivo.
In data set [10] the test system is human DMD transcript. The settings on record: hDMD mouse model.
The test system of data set [11] is normal human skeletal muscle cells or muscle cells from DMD patients. The settings on record: RT-PCR and Western blot. In general terms: In western blotting, separated proteins are transferred to a membrane and probed.
[12] abbreviates: Part 2/Pl patients, 48-51 weeks.
Setting [13] is: Part 1 patients, 60-76 weeks dosing.
Setting [14] is: Part 2 patients, ~48-51 weeks dosing.

“Also recorded” adds a separate entry of the source. Where two headings read alike, the source gives them in different places.

Take `CC/C=C\C/C=C\C/C=C\C/C=C\C/C=C\C/C=C\CCC(=O)NCCNC(=O)c1ccccc1O` [CAT-1004, N-(2-[(4Z,7Z,10Z,13Z,16Z,19Z)-docosa-4,7,10,13,16,19-hexaenamido]ethyl)-2-hydroxybenzamide]: in data set [1], the Safety and tolerability entry is “safe, well tolerated”.
Regarding `O=C1CN(/N=C/c2ccc(-c3ccc([N+](=O)[O-])cc3)o2)C(O)=N1` [dantrolene], in data set [2], the Antisense-mediated exon skipping entry is on record as “enhance antisense-mediated exon skipping”.
In the case of `CC/C=C\C/C=C\C/C=C\C/C=C\C/C=C\CCCC(=O)NCCNC(=O)c1ccccc1O` [CAT-1041], the Dystrophic phenotype entry in data set [3] (GRMD dog, long-term treatment) is listed as “improves the phenotype”. Also, in data set [3] (dog DMD model), the Diaphragm function result was “improved diaphragm function”. Moreover, in [4] (mdx mice), the Exercise endurance result is “increased exercise endurance”; the Inflammation and fibrosis result was “reduced inflammation and fibrosis”. In [4] (mdx mice, long-term studies), the Muscle fibrosis result was “reduces muscle fibrosis”, the Muscle function result was “preserves muscle function” and the Skeletal muscle weight entry is on record as “increases skeletal muscle weight”. Besides, the Dystrophic phenotype entry in data set [4] (mdx mouse, long-term treatment) is “improves the phenotype”. Besides, the Diaphragm function entry in data set [4] (mouse DMD model) was “improved diaphragm function”. The cNF-κB activation result in [5] was “inhibit cNF-κB activation in vitro”.
Consider “all-P-ambo-[P,2′,3′-trideoxy-P-(dimethylamino)-2′,3′-imino-2′,3′-seco](2′a[…]5′)(GTTGCCTCCGGTTCTGAAGGTGTTC) 5′-[4-({2-[2-(2-hydroxyethoxy)ethoxy]ethoxy}carbonyl)-N,N-dimethylpiperazine-1-phosphonamidate] [SRP-4053]”, for which, in data set [6] (All patients), the “Decrease from Baseline (RT-PCR, patients)” value (shortened to “Decrease from Baseline”) is given as 0; the “Fold Increase (RT-PCR exon skipping)” value is recorded as 7.3; the “Increase > 0.1 from Baseline (RT-PCR, patients)” value is 25 (100.0%); the “Increase from Baseline (RT-PCR, patients)” value (from here on “Increase from Baseline”) was 25 (100.0%). Moreover, in data set [6] (All patients), the “No Increase > 0.1 from Baseline (RT-PCR, patients)” value (“No Increase > 0.1 from Baseline” for short) is on record as 0 and the “Unchanged from Baseline (RT-PCR, patients)” value (from here on “Unchanged from Baseline”) is on record as 0. Besides, in data set [6] (Part 1 patients, 60-76 weeks), the “Decrease from Baseline” value is listed as 0; the “Increase > 0.1 from Baseline (RT-PCR, patients)” value is listed as 8 (100.0%); the “Increase from Baseline” value is on record as 8 (100.0%); the “No Increase > 0.1 from Baseline” value is 0. The “Unchanged from Baseline” value in data set [6] (Part 1 patients, 60-76 weeks) was 0. Also, in data set [6] (setting [12]), the “Decrease from Baseline” value was 0; the “Increase > 0.1 from Baseline (RT-PCR, patients)” value is reported as 17 (100.0%); the “Increase from Baseline” value is listed as 17 (100.0%); the “No Increase > 0.1 from Baseline” value is 0. The “Unchanged from Baseline” value in data set [6] (setting [12]) is on record as 0. Further, in data set [6], the “Exon skipping in DMD patients” value is reported as “increase over baseline levels in exon skipping”. In [6] (listed as Golodirsen), the “Exon skipping in DMD patients” value is “observed in all patients”. In data set [7] (above baseline), the “Mean fiber intensity, de novo dystrophin” value is on record as “statistically significant increase (p<0.001) above baseline in de novo dystrophin”. The Sarcolemmal dystrophin localization result in data set [7] (listed as Golodirsen) was “correctly localized to the sarcolemma membrane; also recorded: observed in all patients”. Besides, in data set [8] (All patients), the “Mean Change from baseline (SD), dystrophin by Western blot” value (from here on “Mean Change from baseline (SD)”) is recorded as 0.92 (1.01); the “On treatment Mean % normal (SD), dystrophin by Western blot” value (shortened to “On treatment Mean % normal (SD)”) is recorded as 1.02 (1.03) % normal; the “Baseline Mean % normal (SD), dystrophin by Western blot” value (“Baseline Mean % normal (SD)” for short) was 0.09 (0.07) % normal. Besides, in [8] (DMD patients, over baseline), the “Dystrophin protein as measured by Western blot” value was “statistically significant increase over baseline in dystrophin protein”. Also, in data set [8] (setting [13]), the “Mean Change from baseline (SD)” value is reported as 1.29 (1.51); the “On treatment Mean % normal (SD)” value is recorded as 1.40 (1.57) % normal; the “Baseline Mean % normal (SD)” value is listed as 0.10 (0.09) % normal. In addition, in [8] (setting [14]), the “Mean Change from baseline (SD)” value is 0.75 (0.67); the “On treatment Mean % normal (SD)” value is 0.84 (0.64) % normal; the “Baseline Mean % normal (SD)” value is given as 0.09 (0.06) % normal.
As for eteplirsen, the “Effect on the immune response” value in data set [9] is listed as “no adverse effect on the immune response”. Moreover, in data set [10], the “Exon 51 skipping in vivo” value is recorded as “confirmed in vivo”. Further, the “Exon 51 skipping in vitro” value in data set [11] was “potent inducer of exon 51 skipping”.
